In brackets after ≈: the same amount, converted by molar mass. Several values for one entry are separate records, joined by “and”; a condition that tells them apart may be missing. Identical values can stand only once. Like-named read-outs stand apart in the source and are kept apart here.
Experiments:
P. falciparum (W2) = assay: Antimalarial activity in vitro against P. falciparum cultivated in red cells, 72 hours; type: cell-based; conditions: for IC50: Plasmodium falciparum
Experimental: The tests in vitro to evaluate the antimalarial activity were carried out with P. falciparum cultivated in red cells in 10% of human serum, in slabs of 96 wells, using Rieckman et al's traditional method, modified by Carvalho et al. Braz J. Med. Biol. Research, 1991. The parasites were incubated for 72 hours in culture medium having samples “A”, “B” and “C” in different dilutions in ideal atmospherical conditions at 37° C.; drugs and the culture medium was changed every 24 hours. After this period, blood samples were collected for evaluation of the activity of each compound. As to control wells with complete culture medium were maintained, but with no addition of drugs, and wells in which chloroquine was present in different tested concentrations in triplicate.
(§1) Not only in vivo but also in vitro, the activity of drugs was evaluated in relation to the group control without any drugs.

Plasmodium berghei = assay: Antimalarial activity in vivo in mice infected with Plasmodium berghei NK 65, oral treatment for 4 days; conditions: for Average parasitaemia (%) ± SD on day 5 / Average parasitaemia (%) ± SD on day 7: 12 mg/kg via oral for 4 days in sequence, mice infected by Plasmodium berghei; for Average parasitaemia (%) ± SD on day 5: day 5 of infection; for Average parasitaemia (%) ± SD on day 7: day 7 of infection; for Cumulative mortality on day 10 of infection / Cumulative mortality on day 19 of infection / Cumulative mortality on day 23 of infection / Cumulative mortality on day 35 of infection / Cumulative mortality on day 48 of infection: 5 mice in each group; for % Inhibition of parasitaemia on day 5: day 5, in relation to the group control not treated; for % Inhibition of parasitaemia on day 7: day 7, in relation to the group control not treated; for Suppression of the acute parasitaemia of treated animals: evaluations on the 5th and 7th day after the infection; for Parasitaemia at late follow-up: negative or recrudescence: new blood samples days 30 to 48
Experimental: To evaluate the antimalarial activity the following tests were carried out in different experiments in vivo using groups of Swiss female albino mice, weighing between 18 and 22 g. These mice were innoculated with 100,000 red cells infected with strain NK 65 of Plasmodium berghei (cause of malaria in rodents) according to the scheme previously proposed (Peters et al., Annals of Tropical Medicine and Parasitology, 1993, 87, 547). After inoculating the parasite via intraperitoneal, the animals were divided at random into groups of five. The treatment of the mice were initiated the day after the inoculation, for 4 days in sequence, applying samples “A”, “B” e “C” administered via oral. The different groups of mice, represented by groups treated and not treated (group control) were kept in the same conditions, in polyacetylene cages, water and ration was offered ad libitum. A group was treated with chloroquine, an antimalarial of reference. The development of the infection was verified in all groups through blood samples collected for parasitaemia on the 5th and 7th day after the infection, and the parasitaemia was measured based on double blind tests, in codified slides, in order to minimize occasional bias.
as §1

[1] = P. falciparum (W2) in vitro, Experiment 1, approximated
[2] = P. falciparum (W2) in vitro, Experiment 2, approximated
[3] = 12 mg/kg via oral for 4 days, day 48
[4] = W2, read-out: Inhibiting concentration (IC) 50%, Experiment 1
[5] = W2, read-out: Inhibiting concentration (IC) 50%, Experiment 2

SMILES	Inhibiting concentration (IC) 40%, Experiment 1 (P. falciparum (W2); [1])	Inhibiting concentration (IC) 80%, Experiment 1 (P. falciparum (W2); [1])	Inhibiting concentration (IC) 95%-100%, Experiment 1 (P. falciparum (W2); [1])	Inhibiting concentration (IC) 40%, Experiment 2 (P. falciparum (W2); [2])	Inhibiting concentration (IC) 80%, Experiment 2 (P. falciparum (W2); [2])	Inhibiting concentration (IC) 95%-100%, Experiment 2 (P. falciparum (W2); [2])	Average parasitaemia (%) ± SD on day 5 (Plasmodium berghei)	Average parasitaemia (%) ± SD on day 7 (Plasmodium berghei)	Cumulative mortality on day 10 of infection (Plasmodium berghei; 12 mg/kg via oral for 4 days)	Cumulative mortality on day 19 of infection (Plasmodium berghei; 12 mg/kg via oral for 4 days)	Cumulative mortality on day 23 of infection (Plasmodium berghei; 12 mg/kg via oral for 4 days)	Cumulative mortality on day 35 of infection (Plasmodium berghei; 12 mg/kg via oral for 4 days)	Cumulative mortality on day 48 of infection (Plasmodium berghei; [3])	% Inhibition of parasitaemia on day 5 (Plasmodium berghei; 12 mg/kg via oral for 4 days)	% Inhibition of parasitaemia on day 7 (Plasmodium berghei; 12 mg/kg via oral for 4 days)	Suppression of the acute parasitaemia of treated animals (Plasmodium berghei; 12 mg/kg via oral)	Parasitaemia at late follow-up: negative or recrudescence (Plasmodium berghei; 12 mg/kg via oral)	IC50 (P. falciparum (W2); [4])	IC50 (P. falciparum (W2); [5])	also measured
CC1CCC2C(C)C(OC(=O)CCC(=O)O)OC3OC4(C)CCC1C32OO4.OC(c1cc(C(F)(F)F)nc2c(C(F)(F)F)cccc12)C1CCCCN1 (stereo not drawn) [A, salt of artesunate and mefloquine]	0.83 ng/mL	1.85 ng/mL	4.07 ng/mL	0.46 ng/mL	1.5 ng/mL	≧5 ng/ml	0%	0%	0	0	0	0	0	(100%)	(100%)	100%	remained negative	–	–	Inhibiting concentration (IC) 50%, Experiment 1 (P. falciparum (W2); [1]): 1.03 ng/mL; Inhibiting concentration (IC) 50%, Experiment 2 (P. falciparum (W2); [2]): 0.8 ng/mL; Cure of malaria in treated animals (Plasmodium berghei; 12 mg/kg via oral for 4 days): the cure of malaria was observed
C[C@H]1[C@H](OC(=O)CCC(=O)O)O[C@@H]2O[C@@]3(C)CC[C@H]4[C@H](C)CC[C@@H]1[C@@]24OO3 [B, artesunate]	0.37 ng/mL	0.99 ng/mL	1.54 ng/mL	0.33 ng/mL	1.3 ng/mL	≧5 ng/ml	0%	0%	0	0	1	2	3	(100%)	(100%)	100%	showed recrudescency of the parasitaemia	0.46 ng/mL (≈ 1.2 nM)	0.43 ng/mL (≈ 1.12 nM)	Mortality during follow-up of treatment (Plasmodium berghei; 12 mg/kg via oral, follow-up of about 30 days): mortality occurred; % parasitaemia, Average ± Sd, day 30 (Plasmodium berghei; 12 mg/kg, group average, day 30): 16.6 ± 20.4%; % parasitaemia, Average ± Sd, day 33 (Plasmodium berghei; 12 mg/kg, group average, day 33): 23.3 ± 24.3%; % parasitaemia, Average ± Sd, day 36 (Plasmodium berghei; 12 mg/kg, group average, day 36): 33.5 ± 27.4%; % parasitaemia, Average ± Sd, day 48 (Plasmodium berghei; 12 mg/kg, group average, day 48): 30 ± 21.2%; % Individual parasitaemia on day 30 (recrudescence) (Plasmodium berghei; 12 mg/kg, individual animals infected by P. berghei, day 30, † = Animal death): 0.6% and 24% and 0% and 42%; % Individual parasitaemia on day 33 (recrudescence) (Plasmodium berghei; 12 mg/kg, individual animals infected by P. berghei, day 33, † = Animal death): 5% and 40% and 0% and 48%; % Individual parasitaemia on day 36 (recrudescence) (Plasmodium berghei; 12 mg/kg, individual animals infected by P. berghei, day 36, † = Animal death): 14% and 53% and 0%; % Individual parasitaemia on day 48 (recrudescence) (Plasmodium berghei; 12 mg/kg, individual animals infected by P. berghei, day 48, † = Animal death): 30% and 0%
OC(c1cc(C(F)(F)F)nc2c(C(F)(F)F)cccc12)C1CCCCN1 (stereo not drawn) [C, mefloquine]	0.93 ng/mL	12.9 ng/mL	≧50 ng/ml	2.8 ng/mL	≧5 ng/ml	≧5 ng/ml	0%	0%	0	0	0	0	0	(100%)	(100%)	100%	remained negative	–	–	IC50 (P. falciparum (W2); P. falciparum (W2) in vitro, Experiment 1, approximated, read-out: Inhibiting concentration (IC) 50%, Experiment 1): 1.24 ng/mL (≈ 3.28 nM); IC50 (P. falciparum (W2); P. falciparum (W2) in vitro, Experiment 2, approximated, read-out: Inhibiting concentration (IC) 50%, Experiment 2): 3.4 ng/mL (≈ 8.99 nM)
CCN(CC)CCCC(C)Nc1ccnc2cc(Cl)ccc12 (stereo not drawn) [QC, chloroquine]	41.1 ng/mL	82.3 ng/mL	277.7 ng/mL	48.2 ng/mL	133.4 ng/mL	≧200 ng/ml	–	–	–	–	–	–	–	–	–	–	–	51.3 ng/mL (≈ 160 nM)	55.5 ng/mL (≈ 174 nM)	–

— US8071777B2, “Compounds derived from artesunate, preparation process, pharmaceutical composition and use of the respective medicine” (Fundação Oswaldo Cruz - FIOCRUZ, priority 2004, dated 2011)
